Results on 18 compounds are retold here after patent US9290476B2, “Methylene linked quinolinyl modulators of RORγt” (Janssen Pharmaceutica NV, priority 2012, dated 2016).

The target of assay [1] is human RORγt ligand binding domain (RORγt LBD) (Homo sapiens (Human), UniProt P51449). The assay is described as follows: RORγt ThermoFluor assay (thermal shift binding affinity). Particulars: estimated from thermal shift. On the procedure: This approach is applicable to a wide variety of systems, and rigorous in theoretical interpretation through quantitation of equilibrium binding constants (KD).
The shift in the melting point described as a ΔTm is proportional to the concentration and affinity of the ligand.
RORγt ThermoFluor® Assay Construct
Protein and compound solutions are dispensed into black 384-well polypropylene PCR microplates (Abgene) and overlayed with silicone oil (1 μL, Fluka, type DC 200) to prevent evaporation.
Bar-coded assay plates are robotically loaded onto a thermostatically controlled PCR-type thermal block and then heated at a typical ramp-rate of 1° C./min for all experiments. Fluorescence was measured by continuous illumination with UV light (Hamamatsu LC6) supplied via fiber optic and filtered through a band-pass filter (380-400 nm; >6 OD cutoff). Fluorescence emission of the entire 384-well plate was detected by measuring light intensity using a CCD camera (Sensys, Roper Scientific) filtered to detect 500±25 nm, resulting in simultaneous and independent readings of all 384 wells. Images were collected at each temperature, and the sum of the pixel intensity in a given area of the assay plate was recorded versus temperature. Reference wells contained RORγt without compounds, and the assay conditions were as follows: • 0.065 mg/mL RORγt • 60 μM 1,8-ANS • 100 mM Hepes, pH 7.0 • 10 mM NaCl • 2.5 mM GSH • 0.002% Tween-20
Project compounds were arranged in a pre-dosed mother plate (Greiner Bio-one) wherein compounds are serially diluted in 100% DMSO by 1:2 from a high concentration of 10 mM over 12 columns within a series (column 12 is a reference well containing DMSO, no compound). The compounds were robotically dispensed directly into assay plates (1×=46 nL) using a Hummingbird capillary liquid handling instrument (Digilab). Following compound dispense, protein and dye in buffer was added to achieve the final assay volume of 3 μL, followed by 1 μL of silicone oil.

Another assay deals with human RORγt LBD (Homo sapiens (Human), UniProt P51449). The assay is described as follows: RORγt reporter assay (GAL4-RORγt LBD luciferase in HEK293T cells). In kind it is cell-based. The following applies: for IC50: 24 hours compound treatment; for inhibition at 6 µM: HEK-293T, read-out: RORγt reporter Assay, % inhibition @ 6 μM, HEK293T cells, 6 μM. From the text:
A reporter assay was used to test functional activity of RORγt modulatory compounds on transcriptional activation driven by the RORγt LBD. Cells used in the assay were co-transfected with two constructs. The first construct, pBIND-RORγt LBD, contained the wild type human RORγt LBD fused to the DNA binding domain of the GAL4 protein. The second construct, pGL4.31 (Promega Cat no. C935A), contained multiple GAL4 responsive DNA elements upstream of firefly luciferase. […] The mutant construct was called pBIND-RORγt-AF2.
The pBIND vector contains the GAL4 DNA Binding Domain (GAL4 DBD) and the renilla luciferase gene under control of the SV40 promoter. Renilla luciferase expression serves as a control for transfection efficiency and cell viability.
The reporter assay was performed by transiently transfecting HEK293T cells with 5 ng of pBIND-RORγt LBD or pBIND-RORγt LBD-AF2 and 5 μg pGL4.31 (Promega Cat no. C935A) using Fugene 6 ([…] Cat no. E2691) at a 1:6 ratio of DNA: Fugene 6 in a T-75 flask in which cells were at least 80% confluent. Twenty four hours after bulk transfection, cells were plated into 96-well plates at 50,000 cells/well in phenol-red free DMEM containing 5% Lipid Reduced FCS and Pen/Strep. Six hours after plating, cells were treated with compounds for 24 hours. Media was removed and cells were lysed with 50 μL 1× Glo Lysis Buffer (Promega). Dual Glo Luciferase Reagent (50 μL/well) was then added and firefly luciferase luminescence was read on an Envision after a ten minute incubation. Finally, Stop and Glo reagent (50 μL/well) was added and renilla luciferase luminescence was read on an Envision after a ten minute incubation. To calculate the effect of compounds on RORγt activity, the ratio of firefly to renilla luciferase was determined and plotted against compound concentration. Agonist compounds increase RORγt-driven luciferase expression, and antagonist or inverse agonist compounds decrease luciferase expression.

Counter-ions that a name gives are not always drawn. A value given as a limit tells only on which side of the number the result lay.

Chain of human RORγt ligand binding domain (RORγt LBD) (P51449 other isoform, or with tags, fused parts or gaps): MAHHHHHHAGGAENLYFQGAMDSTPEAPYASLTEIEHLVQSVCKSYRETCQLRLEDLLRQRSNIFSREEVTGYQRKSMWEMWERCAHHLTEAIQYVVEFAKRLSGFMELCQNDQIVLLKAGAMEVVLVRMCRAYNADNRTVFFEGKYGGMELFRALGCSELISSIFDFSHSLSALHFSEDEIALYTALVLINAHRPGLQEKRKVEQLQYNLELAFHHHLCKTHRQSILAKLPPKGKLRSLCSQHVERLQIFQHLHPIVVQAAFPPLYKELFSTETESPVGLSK
Chain of human RORγt LBD (P51449 258-518): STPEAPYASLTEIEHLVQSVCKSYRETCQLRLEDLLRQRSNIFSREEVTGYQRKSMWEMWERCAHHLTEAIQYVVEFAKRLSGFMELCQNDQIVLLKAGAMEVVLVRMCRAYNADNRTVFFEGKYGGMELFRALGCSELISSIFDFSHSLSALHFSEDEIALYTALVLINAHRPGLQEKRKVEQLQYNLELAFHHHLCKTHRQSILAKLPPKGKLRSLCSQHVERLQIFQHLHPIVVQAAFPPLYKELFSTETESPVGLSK

For `COc1nc2ccc(C(O)(c3ccccc3)C3CCN(C(C)=O)CC3)cc2c(Cl)c1Cc1ccc(-n2cccn2)cc1` (racemic) [Example 83A, 1-(4-((3-(4-(1H-Pyrazol-1-yl)benzyl)-4-chloro-2-methoxyquinolin-6-yl)(hydroxy)(phenyl)methyl)piperidin-1-yl)ethanone], in assay [1], the dissociation constant Kd (commonly the constant that tells how readily two partners part at equilibrium) was 0.012 µM. Also, the half-inhibitory concentration (IC50) (as a rule, the concentration needed to halve the response being measured) against human RORγt LBD (HEK293T cells) is 0.039 µM. Moreover, the inhibition – broadly, the relative decrease from the control value, in per cent – at 6 µM at human RORγt LBD turned out to be 104%.

For `Cn1cncc1C(O)(c1ccc(C(F)(F)F)nc1)c1ccc2nc(N3CCC3)c(Cc3ccc(C(F)(F)F)cc3)c(Cl)c2c1` (racemic) [Example 92A, (2-(Azetidin-1-yl)-4-chloro-3-(4-(trifluoromethyl)benzyl)quinolin-6-yl)(1-methyl-1H-imidazol-5-yl)(6-(trifluoromethyl)pyridin-3-yl)methanol], the Kd in assay [1] was 0.0025 µM. The compound further had an IC50 against human RORγt LBD (HEK293T cells) of 0.029 µM. Besides, the inhibition at 6 µM on human RORγt LBD stood at 100%.

On to `COc1nc2c(C)cc(C(O)(c3ccc(Cl)cc3)c3cncn3C)cc2c(Cl)c1Cc1ccc(-n2cccn2)cc1` (single isomer, unassigned) [Example 28B, (3-(4-(1H-pyrazol-1-yl)benzyl)-4-chloro-2-methoxy-8-methylquinolin-6-yl)(4-chlorophenyl)(1-methyl-1H-imidazol-5-yl)methanol], for which the Kd in assay [1] is 1.6 µM. Also, inhibition against human RORγt LBD (HEK293T cells) was half-maximal at 1.1 µM (IC50). For the same compound, the inhibition at 6 µM on human RORγt LBD was found to be 90%.

For the compound `COc1nc2ccc(C(O)(c3ccc(Cl)cc3)c3cncn3C)cc2c(Cl)c1Cc1cc2ccccc2s1` (single isomer, unassigned) [Example 36B, (3-(benzo[b]thiophen-2-ylmethyl)-4-chloro-2-methoxyquinolin-6-yl)(4-chlorophenyl)(1-methyl-1H-imidazol-5-yl)methanol], in assay [1], the Kd is 0.4 µM. Besides, the “RORγt reporter Assay, % inhibition @ 6 μM” value on human RORγt LBD (HEK293T cells, 6 μM) came out at 62%. On human RORγt LBD (HEK293T cells), this compound showed a half-inhibitory concentration (IC50) of 0.74 µM.

Regarding `COc1nc2ccc(C(O)(c3ccc(F)cc3)c3cncn3C)cc2c(Cl)c1Cc1ccc(S(C)(=O)=O)cc1` (single isomer, unassigned) [Example 54B, (4-chloro-2-methoxy-3-(4-(methylsulfonyl)benzyl)quinolin-6-yl)(4-fluorophenyl)(1-methyl-1H-imidazol-5-yl)methanol], the Kd in assay [1] is 0.84 µM. At human RORγt LBD (HEK293T cells), this compound registered an IC50 of 2 µM. Also, on human RORγt LBD, the inhibition at 6 µM stood at 86%.

On to `COc1nc2ccc(C(O)(c3ccc(Cl)cc3)c3cncn3C)cc2c(Cl)c1Cc1ccc(-n2cncn2)cc1` (single isomer, unassigned) [Example 64B, (3-(4-(1H-1,2,4-triazol-1-yl)benzyl)-4-chloro-2-methoxyquinolin-6-yl)(4-chlorophenyl)(1-methyl-1H-imidazol-5-yl)methanol], for which the inhibition at 6 µM at human RORγt LBD turned out to be 101%.

On to `COc1nc2ccc(C(O)(c3ccc(C)nc3C)c3cnnn3C)cc2c(C#N)c1Cc1ccc(C(F)(F)F)cc1` (single isomer, unassigned) [Example 78B, 6-((2,6-Dimethylpyridin-3-yl)(hydroxy)(1-methyl-1H-1,2,3-triazol-5-yl)methyl)-2-methoxy-3-(4-(trifluoromethyl)benzyl)quinoline-4-carbonitrile], for which the inhibition at 6 µM at human RORγt LBD stood at 94%.

`OC(c1cccnc1)(c1cccc(Cl)c1)c1ccc2nc(Cl)c(Cc3ccc(Cl)cc3)c(Cl)c2c1` (stereo not drawn) [Example 2, (3-Chlorophenyl)-(2,4-dichloro-3-(4-chlorobenzyl)quinolin-6-yl)-(pyridin-3-yl)methanol.TFA]: the 50% inhibitory concentration (IC50) on human RORγt LBD (HEK293T cells) worked out at 0.05 µM. On human RORγt LBD, the inhibition at 6 µM was 70%.

Regarding `OC(c1cccnc1)(c1cccc(Cl)c1)c1ccc2nc(Cl)c(Cc3ccc(F)cc3)c(Cl)c2c1` (stereo not drawn) [Example 3, (3-Chlorophenyl)-(2,4-dichloro-3-(4-fluorobenzyl)quinolin-6-yl)-(pyridin-3-yl)methanol.TFA], the IC50 at human RORγt LBD (HEK293T cells) is over 6 µM. In addition, on human RORγt LBD, the inhibition at 6 µM is 30%.

For `COc1ccc(C(O)(c2ccc3nc(Cl)c(Cc4ccc(-n5cccn5)cc4)c(Cl)c3c2)c2cncn2C)cn1` (stereo not drawn) [Example 21, (3-(4-(1H-Pyrazol-1-yl)benzyl)-2,4-dichloroquinolin-6-yl)(6-methoxypyridin-3-yl)(1-methyl-1H-imidazol-5-yl)methanol.TFA], the inhibition at 6 µM on human RORγt LBD amounted to 103%.

`COc1ccc(Cc2cc3cc(C(O)(c4cncs4)c4cncn4C)ccc3nc2Cl)cc1` (stereo not drawn) [Example 52, (2-chloro-3-(4-methoxybenzyl)quinolin-6-yl)(1-methyl-1H-imidazol-5-yl)(thiazol-5-yl)methanol.TFA] displayed an IC50 against human RORγt LBD (HEK293T cells) of over 6 µM. On human RORγt LBD, the inhibition at 6 µM came out at 34%.

The compound `COc1nc2ccc(C(O)(c3ccc(C(F)(F)F)nc3)c3cncn3C)cc2c(Cl)c1Cc1ccc(S(C)(=O)=O)cc1` (stereo not drawn) [Example 53, (4-Chloro-2-methoxy-3-(4-(methylsulfonyl)benzyl)quinolin-6-yl)(1-methyl-1H-imidazol-5-yl)(6-(trifluoromethyl)pyridin-3-yl)methanol] showed an IC50 on human RORγt LBD (HEK293T cells) of 0.046 µM. For the same compound, the inhibition at 6 µM on human RORγt LBD turned out to be 101%.

On to `COc1nc2ccc(C(O)(c3ccc(Cl)cc3)c3cncn3C)cc2c(Cl)c1Cc1ccc(-n2cncn2)cc1` (stereo not drawn) [Example 64A, (3-(4-(1H-1,2,4-Triazol-1-yl)benzyl)-4-chloro-2-methoxyquinolin-6-yl)(4-chlorophenyl)(1-methyl-1H-imidazol-5-yl)methanol], for which, at human RORγt LBD, the inhibition at 6 µM was determined as 99%.

Regarding `Cn1cncc1C(O)(c1ccc(Cl)cc1)c1ccc2nc(C#N)c(Cc3ccc(-n4cccn4)cc3)c(C#N)c2c1` (stereo not drawn) [Example 71A, 3-(4-(1H-Pyrazol-1-yl)benzyl)-6-((4-chlorophenyl)(hydroxy)(1-methyl-1H-imidazol-5-yl)methyl)quinoline-2,4-dicarbonitrile], the IC50 against human RORγt LBD (HEK293T cells) was determined as 0.11 µM. At human RORγt LBD, the inhibition at 6 µM is 97%.

For the compound `COc1nc2ccc(C(O)(c3ccc(C)nc3C)c3cnnn3C)cc2c(Cl)c1Cc1ccc(C(F)(F)F)cc1` (stereo not drawn) [Example 77A, (4-Chloro-2-methoxy-3-(4-(trifluoromethyl)benzyl)quinolin-6-yl)(2,6-dimethylpyridin-3-yl)(1-methyl-1H-1,2,3-triazol-5-yl)methanol], the inhibition at 6 µM at human RORγt LBD stood at 103%.

`COc1nc2ccc(C(O)(c3ccc(C)nc3C)c3cnnn3C)cc2c(C#N)c1Cc1ccc(C(F)(F)F)cc1` (stereo not drawn) [Example 78A, 6-((2,6-Dimethylpyridin-3-yl)(hydroxy)(1-methyl-1H-1,2,3-triazol-5-yl)methyl)-2-methoxy-3-(4-(trifluoromethyl)benzyl)quinoline-4-carbonitrile]: the inhibition at 6 µM on human RORγt LBD worked out at 97%.

Regarding `COc1nc2ccc(C(O)(c3cnnn3C)c3cnc(C)n3C)cc2c(Cl)c1Cc1ccc(C(F)(F)F)cc1` (stereo not drawn) [Example 80A, (4-Chloro-2-methoxy-3-(4-(trifluoromethyl)benzyl)quinolin-6-yl)(1,2-dimethyl-1H-imidazol-5-yl)(1-methyl-1H-1,2,3-triazol-5-yl)methanol], the inhibition at 6 µM on human RORγt LBD was 103%.

Turning to `CCc1nc2ccc(C(O)(c3cnnn3C)C3CN(S(C)(=O)=O)C3)cc2c(Cl)c1Cc1ccc(C(F)(F)F)cc1` (stereo not drawn) [Example 91A, (4-Chloro-2-ethyl-3-(4-(trifluoromethyl)benzyl)quinolin-6-yl)(1-methyl-1H-1,2,3-triazol-5-yl)(1-(methylsulfonyl)azetidin-3-yl)methanol], on human RORγt LBD, the inhibition at 6 µM was 100%.
